Data reported in patent US20210046160A1 (Synthorx, Inc., priority 2019, published 2021).

Tests used:
CTLL-2 = CTLL-2 proliferation; assay type: cell-based
Treg cells = experiment: pSTAT5 concentration-response in human LRS-derived PBMC samples (flow cytometry): Treg cells; assay type: cell-based; conditions: ratio of pSTAT5 EC50 values; for CD8+/Treg ratio: Table 12; for CD8/Treg ratio: Table 4
Method: These studies were performed at PrimityBio LLC (Fremont, Calif.). […] Staining panel for flow cytometry study of LRS-derived PBMC samples include markers for Effector T cells (Teff: CD3+, CD4+, CD8+, CD127+), NK cells (CD3-, CD16+), and Regulatory T cells (Treg: CD3+, CD4+, CD8-, IL-2Rα+, CD127-1).
The EC50 values (pg/mL) was calculated from dose response curves generated from MFI plots.
These studies were performed at PrimityBio LLC (Fremont, Calif.). […] Staining panel for flow cytometry study of LRS-derived PBMC samples include markers CD4, CD4+ memory central, CD4+ memory effect, CD4+ memory T cells, CD4+ Naive T cells, CD4+ T cells, CD8, CD8+ memory central, CD8+ memory effect, CD8+ memory T cells, CD8+ Naive T cells, CD8+ T cells, NK cells, and T regulatory cells.
Conjugates of Table 12 were synthesized by modification of SEQ NO. 1. These studies were performed at PrimityBio LLC (Fremont, Calif.).
The EC50 values (pg/ml) were calculated from dose response curves generated from the MFI plots.

[1] = PK study E3826-U1704 in naïve C57BL/6 mice (human IL-2 ELISA of plasma); assay type: in vivo; conditions: for AUC0-t / AUCINF / CL / Cmax / Tmax / Vss (distribution volume) / t½: C57BL/6 female mice, single IV bolus 0.3 mg/kg, E62_5 kD from a separate study; for mean plasma concentrations measurable out to (post-dose): single IV bolus, 120 h = last measured time point
Method: Terminal blood samples were collected via cardiac puncture at the points indicated. […] Plasma and blood cells (in both studies) and tumors in study E3826-U1803 were collected for PK and PD analyses.
Bioanalysis of plasma samples was performed using a qualified human IL-2 ELISA assay (Abcam, Cambridge, UK). Concentrations of Aldesleukin, E62_30kD and P65_30kD and the internal standard in samples derived from plasma were determined using an ELISA assay. […] The PK data were imported into Phoenix WinNonlin v6.4 (Certara/Pharsight, Princeton, N.J.) for analysis. The group mean plasma concentration versus time data were analyzed with noncompartmental methods using an IV bolus administration model.

[2] = PK study of K35_30kD in C57BL/6 mice (Example 8); assay type: in vivo; conditions: male C57BL/6 mice
Method: The lyophilized test article was reconstituted in PBS, and nine male C57BL/6 mice were dosed with 0.3 and 3 mg/kg via intravenous tail vein injection for each dose group (see collection details below). Blood samples were collected at 0.08, 0.25, 0.5, 1, 2, 4, 8, 12, and 24 hours post dose. […] To adjust for ELISA-specific differences in sensitivity of kit detection of native and PEGylated compounds, native IL-2 and K35_30kD test article standard curves were generated using the test article diluent buffer, and data were analyzed with respect to respective standard curves. The data plotted represent the mean and SEM of three individual samples (biological replicates) as described above, and PK parameters for K35_30 kD test articles were extracted and summarized in Table 14.

In the case of “M23_30kD: 30 kD PEGylated IL-2 conjugate at M23, made by modification of SEQ NO. 1 [Compound M23_30kD]”, the “EC50, CTLL-2 proliferation” value (CTLL-2; Table 12) is reported as 1102 pg/mL and the “CD8+/Treg ratio” value (Treg cells) is reported as 524.

With “T123_30kD: 30 kD PEGylated IL-2 conjugate at T123, made by modification of SEQ NO. 1 [Compound T123_30kD]” the “EC50, CTLL-2 proliferation” value (CTLL-2; Table 12) was 255 pg/mL and the “CD8+/Treg ratio” value (Treg cells) was 569.

In the case of “N88R/D109_30kD: IL-2 variant N88R with 30 kD PEG at D109, made by modification of SEQ NO. 1”, the “EC50, CTLL-2 proliferation” value (CTLL-2; Table 12) is reported as 59577 pg/mL and the “CD8+/Treg ratio” value (Treg cells) is reported as 71.

For “N88_30kD: 30 kD PEGylated IL-2 conjugate at N88, made by modification of SEQ NO. 1 [Compound N88_30kD]”, the “EC50, CTLL-2 proliferation” value (CTLL-2; Table 12) was 66606 pg/mL and the “CD8+/Treg ratio” value (Treg cells) was 34.

With “E62_5kD: SEQ ID NO: 21: IL-2 (SEQ ID NO: 4) with E62 replaced by AzK conjugated to methoxy linear 5 kDa PEG [Compound E62_5kD]” the “EC50, CTLL-2 proliferation” value (CTLL-2; Table 4) was 275,590 pg/mL, the AUC0-t [1] was 798 ng·h/mL and the AUCINF [1] was 807 ng·h/mL. For the same substance, the CL [1] was 6.2 mL/min/kg, the Cmax [1] was 936 ng/mL and the Tmax [1] was 7.98 min. For the same substance, the “Vss (distribution volume)” value [1] was 0.404 L/kg, the t½ [1] was 2.56 h and the “mean plasma concentrations measurable out to (post-dose)” value [1] was 12 h. The CD8/Treg ratio (Treg cells) was 2.3.

With “N88R: IL-2 variant with substitution N88R [Compound N88R]” the “EC50, CTLL-2 proliferation” value (CTLL-2; Table 12) was 363 pg/mL and the “CD8+/Treg ratio” value (Treg cells) was 1356.

With “D20_30kD: 30 kD PEGylated IL-2 conjugate at D20, made by modification of SEQ NO. 1 [Compound D20_30kD]” the “EC50, CTLL-2 proliferation” value (CTLL-2; Table 12) was 689939 pg/mL and the “CD8+/Treg ratio” value (Treg cells) was 8.

With “L19_30kD: 30 kD PEGylated IL-2 conjugate at L19, made by modification of SEQ NO. 1 [Compound L19_30kD]” the “EC50, CTLL-2 proliferation” value (CTLL-2; Table 12) was 3510 pg/mL and the “CD8+/Treg ratio” value (Treg cells) was 241.

With “T131_30kD: 30 kD PEGylated IL-2 conjugate at T131, made by modification of SEQ NO. 1 [Compound T131_30kD]” the “EC50, CTLL-2 proliferation” value (CTLL-2; Table 12) was 641 pg/mL and the “CD8+/Treg ratio” value (Treg cells) was 515.

For “S127_30kD: 30 kD PEGylated IL-2 conjugate at S127, made by modification of SEQ NO. 1 [Compound S127_30kD]”, the “EC50, CTLL-2 proliferation” value (CTLL-2; Table 12) was 123 pg/mL and the “CD8+/Treg ratio” value (Treg cells) was 615.

In the case of “H16_30kD: 30 kD PEGylated IL-2 conjugate at H16, made by modification of SEQ NO. 1 [Compound H16_30kD]”, the “EC50, CTLL-2 proliferation” value (CTLL-2; Table 12) is reported as 80755 pg/mL and the “CD8+/Treg ratio” value (Treg cells) is reported as 345.

In the case of “V91K: IL-2 variant with substitution V91K [Compound V91K]”, the “EC50, CTLL-2 proliferation” value (CTLL-2; Table 12) is reported as 99.5 pg/mL and the “CD8+/Treg ratio” value (Treg cells) is reported as 720.

In the case of “N26_30kD: 30 kD PEGylated IL-2 conjugate at N26, made by modification of SEQ NO. 1 [Compound N26_30kD]”, the “EC50, CTLL-2 proliferation” value (CTLL-2; Table 12) is reported as 2594 pg/mL and the “CD8+/Treg ratio” value (Treg cells) is reported as 483.

With “E100_30kD: 30 kD PEGylated IL-2 conjugate at E100, made by modification of SEQ NO. 1 [Compound E100_30kD]” the “EC50, CTLL-2 proliferation” value (CTLL-2; Table 12) was 1676 pg/mL and the “CD8+/Treg ratio” value (Treg cells) was 405.

For “K9_30kD: 30 kD PEGylated IL-2 conjugate at K9, made by modification of SEQ NO. 1 [Compound K9_30kD]”, the “EC50, CTLL-2 proliferation” value (CTLL-2; Table 12) was 504 pg/mL and the “CD8+/Treg ratio” value (Treg cells) was 496.

In the case of “E62K: IL-2 variant with residue substitution E62K, not PEGylated [Compound E62K]”, the “EC50, CTLL-2 proliferation” value (CTLL-2; Table 4) is reported as 58,213 pg/mL and the CD8/Treg ratio (Treg cells) is reported as 5.8.

With “E62_30kD: SEQ ID NO: 26: IL-2 (SEQ ID NO: 4) with E62 replaced by AzK conjugated to methoxy linear 30 kDa PEG [Compound E62_30kD]” the “EC50, CTLL-2 proliferation” value (CTLL-2; Table 4) was 398,012 pg/mL, the AUC0-t [1] was 37,100 h*ng/mL and the AUCINF [1] was 37,100 h*ng/mL. For the same substance, the CL [1] was 0.134 mL/min/kg, the Cmax [1] was 4,230 ng/mL and the Tmax [1] was 1.8 min. For the same substance, the “Vss (distribution volume)” value [1] was 0.0923 L/kg, the t½ [1] was 14.500 h and the “mean plasma concentrations measurable out to (post-dose)” value [1] was 120 h. For the same substance, the CD8/Treg ratio (Treg cells) was 1.8.

In the case of “P65_5kD: SEQ ID NO: 20: IL-2 (SEQ ID NO: 4) with P65 replaced by AzK conjugated to methoxy linear 5 kDa PEG [Compound P65_5kD]”, the “EC50, CTLL-2 proliferation” value (CTLL-2; Table 4) is reported as 194,924 pg/mL and the CD8/Treg ratio (Treg cells) is reported as 2.2.

In the case of “K35_30kD: SEQ ID NO: 29: IL-2 (SEQ ID NO: 4) with K35 replaced by AzK conjugated to methoxy linear 30 kDa PEG [Compound K35_30kD]”, the AUC1/2extrap ([2]; 0.3 mg/kg single IV) is reported as 35.3%, the AUCo-t/D ([2]; 0.3 mg/kg single IV) is reported as 128000 ng·h/mL and the “AUG0-∞” value ([2]; 0.3 mg/kg single IV) is reported as 59600 ng·h/mL. It also gave a Cmax ([2]; 0.3 mg/kg single IV) of 6080 ng/mL, a Cmax/D ([2]; 0.3 mg/kg single IV) of 20300 kg·ng/mL/mg and a Tmax ([2]; 0.3 mg/kg single IV) of 0.250 h. The t1/2 ([2]; 0.3 mg/kg single IV) was 18.2 h, the AUC1/2extrap ([2]; 3 mg/kg single IV) was 37.4% and the AUCo-t/D ([2]; 3 mg/kg single IV) was 142000 ng·h/mL. The “AUG0-∞” value ([2]; 3 mg/kg single IV) was 679000 ng·h/mL, the Cmax ([2]; 3 mg/kg single IV) was 57700 ng/mL and the Cmax/D ([2]; 3 mg/kg single IV) was 19200 kg·ng/mL/mg. The Tmax ([2]; 3 mg/kg single IV) was 0.250 h, the t1/2 ([2]; 3 mg/kg single IV) was 19.5 h and the CD8/Treg ratio (Treg cells) was 176.0.

For “Q126_30kD: 30 kD PEGylated IL-2 conjugate at Q126, made by modification of SEQ NO. 1 [Compound Q126_30kD]”, the “EC50, CTLL-2 proliferation” value (CTLL-2; Table 12) was 3584 pg/mL and the “CD8+/Treg ratio” value (Treg cells) was 670.

For “N119_30kD: 30 kD PEGylated IL-2 conjugate at N119, made by modification of SEQ NO. 1 [Compound N119_30kD]”, the “EC50, CTLL-2 proliferation” value (CTLL-2; Table 12) was 1215 pg/mL and the “CD8+/Treg ratio” value (Treg cells) was 268.
